Measured values published in patent US7956072B2, “Agent for repairing corneal sensitivity containing amide compound” (Senju Pharmaceutical Co., Ltd., priority 2004, dated 2011).
“Also recorded” adds a separate entry of the source.

Columns and labels:
[1] = system: cultured rabbit trigeminal nerve cells; test: Promoting effect on neuritogenesis in cultured rabbit trigeminal nerve cell; type: cell-based; settings: compound 1 final concentration 1 μM, 48 hr of culture
Excerpt: Japanese White rabbits (2-3 days old) purchased from KITAYAMA LABES Co., Ltd. were used.
The trigeminal nerve cell was isolated according to the report of Chan et al. (Chan, Kuan Y. and Haschke, Richard H., Exp. Eye Res., 41: 687-699, 1985). To be specific, under ether anesthesia, after cardiac perfusion with saline, the trigeminal ganglia was removed, dispersed using a nerve dispersion solution (SUMITOMO BAKELITE Co., Ltd.) to give a cell suspension. […]
After 48 hr of culture, the cells were fixed with 4% paraformaldehyde at room temperature for 2 hr, and nerve cell body and neurite were fluorescence stained using an anti-neurofilament 200 antibody (Sigma) that specifically recognizes neurofilaments which are intermediate filaments specific to a nerve cell and a fluorescent secondary antibody reactive therewith.
The stained cells were imported as images from a fluorescence microscope into a computer and the cell body diameter and neurite length of the imported cell images were measured using an image analysis software (Image-Pro Plus ver. 4.0, Planetron. Inc.). The cells of 3 wells were measured for each of the compound 1 addition group and the control group. The cells having a neurite with a length of not less than twice the diameter of a cell body were taken as neuritogenetic cells, and the percentage (%) of the neuritogenetic cells in the total cells measured was calculated.

[2] = system: rabbit corneal hyposensitivity model; test: Improving effect on rabbit corneal hyposensitivity using microkeratome (corneal flap model, Cochet-Bonnet corneal sensitivity meter); type: in vivo; settings: 0.01% instillation; for recovery of corneal sensitivity relative to control group: 50 μL 4 times a day for 1 week or 2 weeks after corneal flap preparation, measured weekly 1 to 8 weeks postsurgery, hydrochloride
Experimental: Japanese white rabbits (body weight 2.5-3.0 kg) purchased from Japan SLC were used. The animals were housed separately in cages in a room set to room temperature 23±3° C., humidity 55±10%, 12 hr light cycle (light on 8 am, light off on 8 pm) from arrival to the end of the test. A limited amount of a solid feed (Labo R-stock, Nosan Corporation, 100 g for one day) was given to the animals and a free access to tap water was allowed.
As the test substance, compound 1 was used. Compound 1 was dissolved in the following base solution to 0.01% and administered by instillation. The base solution was administered to the control group by instillation.
Prior to the start of the test, the anterior segment of eye of the animal was visually observed and cornea stained marks by fluorescein was observed, and the rabbits showing no abnormality in them were selected. Using Cochet-Bonnet corneal sensitivity meter (manufactured by LUNEAU), the initial value of corneal sensitivity was measured.
Intramuscular injection (0.9 mL/kg) of a Celactal (2% xylazine):Ketalar (5% ketamine)=0.5:1 mixture was given to the animals to perform systemic anesthesia, and the eyeball was sufficiently exposed. Using microkeratome (MK2000, Nidek) attached a rabbit eye adaptor inside a suction ring, a corneal flap (diameter 8.5 mm) was prepared with a 130 μm thick blade (Arbelaez M C. et al., J. Refract Surg., 2002 May-Jun. 18 (3 Suppl): S357-60). The corneal flap was certainly put back into position under a microscope, and the animal was woken up from the anesthesia while observing the animal to prevent displacement of the flap. […]
The corneal sensitivity was measured using a Cochet-Bonnet corneal sensitivity meter once every week from one to eight weeks after the surgery. […]
For statistical analysis, a parametric Dunnett multiple comparisons test (one sided) (SAS preclinical package; Version 5.0, SAS Institute Japan) was used and a risk of less than 5% was evaluated as significant.

## C[C@@H](N)c1ccc(C(=O)Nc2ccnc3[nH]ccc23)cc1.Cl [compound 1, (R)-(+)-N-(1H-pyrrolo[2,3-b]pyridin-4-yl)-4-(1-aminoethyl)benzamide 1 hydrochloride]
[1]; anti-neurofilament 200 staining, hydrochloride
  neuritogenesis of cultured trigeminal nerve cells (fluorescence microscope observation): many cells having a long-extended neurite were observed; also recorded: promotes neuritogenesis
[1]; N=3, mean, control group 24%, p<0.001 vs control
  percentage (%) of the neuritogenetic cells in the total cells measured: 54.6%
[2]; 1-week administration group, at 5 week postsurgery, Dunnett test, p<0.05
  corneal sensitivity compared to control group (statistical analysis): significantly high
[2]
  recovery of corneal sensitivity relative to control group: has an effect of promoting the recovery of corneal hyposensitivity
[2]; listed as test substance
  recovery of corneal sensitivity relative to control group: better recovery of corneal sensitivity than in the control group
